biological target: Phosphatidylinositol 3-kinase catalytic subunit type 3 (Homo sapiens, UniProt Q8NEB9); assay: Kinase Glo Luminescent Kinase Assay: PI 3-Kinase Alpha (A), Pb 3-Kinase Beta (B), Vps34 (C), PI 4-Kinase Beta (D):The luminescence-based ATP detection reagent KinaseGlo was obtained from Promega, (Cat. No. V6714, Lot No. 236161) through Catalys, Wallisellen, Switzerland. L-alpha-phosphatidylinositol (PI, liver, bovine) was obtained from Avanti Polar Lipid (Cat. No. 840042C, Lot#LPI-274), Phosphatidylinositol-4,5-bisphosphate (PIP(4,5)2) was also obtained from Avanti Polar Lipid (Cat. No. 840046X). L-α-Phosphatidylserine (PS) was obtained from Avanti Polar Lipid (Cat. No. 840032C), n-Octylglucoside from Avanti Polar Lipid (Cat. No. 10634425001). Luminescence is a well established readout to determine ATP concentrations and can thus be used to follow the activity of many kinases regardless of their substrate. The Kinase Glo Luminescent Kinase Assay (Promega, Madison/WI, USA) is a homogeneous HTS method of measuring kinase activity by quantifying the amount of ATP remaining in solution following a kinase reaction.
Sequence (Q8NEB9 whole entry): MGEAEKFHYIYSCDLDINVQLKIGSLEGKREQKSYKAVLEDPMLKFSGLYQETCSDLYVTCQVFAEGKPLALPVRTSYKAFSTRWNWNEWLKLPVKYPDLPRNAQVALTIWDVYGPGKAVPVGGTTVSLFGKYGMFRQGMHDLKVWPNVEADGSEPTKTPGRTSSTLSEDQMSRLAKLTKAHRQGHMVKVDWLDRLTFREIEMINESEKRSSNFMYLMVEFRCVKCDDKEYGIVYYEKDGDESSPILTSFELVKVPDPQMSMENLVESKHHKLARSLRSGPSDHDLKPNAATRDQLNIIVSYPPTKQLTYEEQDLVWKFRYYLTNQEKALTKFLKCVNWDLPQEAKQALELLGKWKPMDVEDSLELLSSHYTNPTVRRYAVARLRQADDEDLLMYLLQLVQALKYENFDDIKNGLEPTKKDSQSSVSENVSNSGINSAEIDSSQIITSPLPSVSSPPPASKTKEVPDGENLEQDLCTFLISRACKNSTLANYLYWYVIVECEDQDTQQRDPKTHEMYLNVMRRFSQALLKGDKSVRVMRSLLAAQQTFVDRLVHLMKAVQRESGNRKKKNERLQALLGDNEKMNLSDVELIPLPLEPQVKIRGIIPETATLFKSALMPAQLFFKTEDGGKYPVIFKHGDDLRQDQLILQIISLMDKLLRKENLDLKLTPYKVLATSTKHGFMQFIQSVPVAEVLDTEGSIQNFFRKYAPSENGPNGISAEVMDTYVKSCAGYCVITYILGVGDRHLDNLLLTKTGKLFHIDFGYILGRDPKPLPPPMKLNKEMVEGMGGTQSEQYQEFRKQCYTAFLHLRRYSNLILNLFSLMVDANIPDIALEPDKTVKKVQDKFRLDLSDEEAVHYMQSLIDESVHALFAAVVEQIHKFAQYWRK

IC50 | Structure (SMILES)
4.4 µM | Cc1ccc(S(=O)(=O)NC[C@H]2C[C@@H](O)C2)cc1-c1cncc(-c2cn(C)nc2C)n1
2.45 µM | Cc1cc(-c2cncc(-c3cc(S(=O)(=O)NC[C@H]4C[C@@H](O)C4)ccc3C)n2)n(C)n1
8.6 µM | Cc1ccc(S(=O)(=O)N[C@H]2CC[C@H](O)CC2)cc1-c1cncc(-c2csc(CN3CCOCC3)c2)n1
9.4 µM | Cc1ccc(S(=O)(=O)NC2CC3(CC(O)C3)C2)cc1-c1cncc(-c2cn(C)nc2C)n1 (centres undefined)
